T1: PTP-MEG2 (megakaryocyte protein tyrosine phosphatase 2, PTPN9) (Homo sapiens, UniProt P43378)
T1 sequence (P43378 1-593): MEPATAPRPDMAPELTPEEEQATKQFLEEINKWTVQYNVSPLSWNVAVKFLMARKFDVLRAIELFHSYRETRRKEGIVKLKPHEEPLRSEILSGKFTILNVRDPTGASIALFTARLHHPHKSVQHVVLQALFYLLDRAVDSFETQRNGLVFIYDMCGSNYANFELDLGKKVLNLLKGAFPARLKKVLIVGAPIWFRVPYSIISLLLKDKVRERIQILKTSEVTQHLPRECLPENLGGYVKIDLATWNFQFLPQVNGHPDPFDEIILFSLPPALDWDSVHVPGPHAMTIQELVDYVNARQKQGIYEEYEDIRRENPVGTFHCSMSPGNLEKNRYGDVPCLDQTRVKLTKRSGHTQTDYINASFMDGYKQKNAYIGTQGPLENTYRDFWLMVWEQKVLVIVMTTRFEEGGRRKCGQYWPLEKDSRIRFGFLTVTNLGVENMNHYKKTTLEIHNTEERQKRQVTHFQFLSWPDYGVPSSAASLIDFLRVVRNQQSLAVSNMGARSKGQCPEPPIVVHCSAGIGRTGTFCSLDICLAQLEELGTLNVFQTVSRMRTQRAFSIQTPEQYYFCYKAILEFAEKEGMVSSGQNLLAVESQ

B1: PTP-MEG2 (megakaryocyte protein tyrosine phosphatase 2, PTPN9) (Homo sapiens) (protein)
chain: MEPATAPRPDMAPELTPEEEQATKQFLEEINKWTVQYNVSPLSWNVAVKFLMARKFDVLRAIELFHSYRETRRKEGIVKLKPHEEPLRSEILSGKFTILNVRDPTGASIALFTARLHHPHKSVQHVVLQALFYLLDRAVDSFETQRNGLVFIYDMCGSNYANFELDLGKKVLNLLKGAFPARLKKVLIVGAPIWFRVPYSIISLLLKDKVRERIQILKTSEVTQHLPRECLPENLGGYVKIDLATWNFQFLPQVNGHPDPFDEIILFSLPPALDWDSVHVPGPHAMTIQELVDYVNARQKQGIYEEYEDIRRENPVGTFHCSMSPGNLEKNRYGDVPCLDQTRVKLTKRSGHTQTDYINASFMDGYKQKNAYIGTQGPLENTYRDFWLMVWEQKVLVIVMTTRFEEGGRRKCGQYWPLEKDSRIRFGFLTVTNLGVENMNHYKKTTLEIHNTEERQKRQVTHFQFLSWPDYGVPSSAASLIDFLRVVRNQQSLAVSNMGARSKGQCPEPPIVVHCSAGIGRTGTFCSLDICLAQLEELGTLNVFQTVSRMRTQRAFSIQTPEQYYFCYKAILEFAEKEGMVSSGQNLLAVESQ

Key:
[1] = molecular target: T1, PTP-MEG2 (megakaryocyte protein tyrosine phosphatase 2, PTPN9); assay: SPR on immobilized purified PTP-MEG2; also DiFMUP enzyme inhibition, IC50 =[…], slow-binding
[2] = substrate: Cc1cc(=O)oc2c(F)c(OP(=O)(O)O)c(F)cc12; assay: fluorogenic substrate hydrolysis by purified enzyme; Km from Lineweaver-Burk plots; type: biochemical, Homo sapiens
Description: fluorogenic substrate hydrolysis by purified enzyme; Km from Lineweaver-Burk plots on PTP-MEG2 (megakaryocyte protein tyrosine phosphatase 2, PTPN9) | kinetic constants of PTP-MEG2 were determined using DiFMUP as a fluorogenic PTP substrate

Molecule | Kd [1] [µM] | Km [2] [µM]
O=C(CCc1ccc(O)cc1)c1c(O)cc(O)cc1O[C@@H]1O[C@H](CO)[C@@H](O)[C@H](O)[C@H]1O [phloridzin] | 4.66 | 
B1 |  | 163.1
